According to patent US11471460B2, “Autophagy modulators for use in treating cancer” (The United States of America,as represented by the …, priority 2017, dated 2022):
Read-outs that look alike come from different tables or passages of the source. Each block holds one compound with its values, some of them ahead of it.

What was measured:
[1] = system: melanoma A375 cells; assay: A375 cell proliferation (crystal violet plate assay); format: cell-based, human
[2] = system: osteosarcoma U2OS cells; assay: Induction of cytoplasmic vacuoles (enlarged lysosomes) in U2OS cells, light microscopy; format: cell-based, human; conditions: for Concentration to induce LC3-II accumulation, inhibit proliferation or viability relative to concentration to observe vacuolization: same U2OS cells
Source text: Vehicle is the concentration of DMSO that was introduced by addition of compounds.
These effects are dependent on the compound selected, its concentration and the length of time cells are exposed to the compound.
(§1) Cells were obtained from the American Type Culture Collection. BORCS5-KO HeLa cells have been described previously. Osteosarcoma U2OS were routinely seeded in 6-well plates (0.5×10^5 cells/well) and cultured in Dulbecco's Modified Eagle's medium supplemented with L-Glutamine, 4.5 g/L Glucose, Sodium Pyruvate, Phenol Red, and either heat-inactivated or normal 10% fetal calf serum at 37° C. in 5% CO2. Approximately 15-19 hours later, the indicated compound was added in 1:1000 dilutions. Results were the same using either heat-inactivated or normal fetal calf serum. Melanoma A375, embryonic kidney 293T and human foreskin fibroblast Hs27 cells were cultured in the same medium, except that cells were seeded into 12-well plates at 10^3 cells/well.
Phase contrast photographs were taken on an Olympus CKX41 microscope. Confocal photographs were taken on a Leica TCS-SP5II. For immunofluorescence microscopy, the cells were fixed in 4% paraformaldehyde (Electron Microscopy Sciences, 15714) in PBS for 12 min, permeabilized with 0.2% Triton X-100 in PBS for 10 min, and blocked in 0.2% BSA (Sigma-Aldrich, A7030) in PBS for 30 min at 37° C. For endogenous LC3 staining, cells were permeabilized in methanol for 20 min at −20° C. after the paraformaldehyde fixation. The cells were sequentially incubated with primary antibodies (LAMP1: Developmental Studies Hybridoma Bank; LC3 and LAMTOR4: Cell Signaling Technology; FLAG epitope: Sigma-Aldrich) and secondary antibodies conjugated to Alexa Fluor dyes (Life Technologies) diluted with 0.2% BSA in PBS for 30 min at 37° C. Coverslips were mounted on glass slides using Fluoromount-G (Electron Microscopy Sciences, 17984-24). Cells were imaged using a Zeiss LSM880 with AiryScan confocal microscope (Carl Zeiss AG, Oberkochen, Germany) or a Leica TCS-SP5II. The final composite images were created and properly analyzed for lysosomal size examination using ImageJ (NIH).

[3] = system: LC3-II and p62 in U2OS cells; assay: Accumulation of autophagosome markers LC3-II and p62, Western immuno-blotting; format: cell-based, human; conditions: U2OS cells
Procedure: Cells were cultured for 4 hrs before total cell extracts were subjected to Western immuno-blotting for LC3, p62 and β-actin. Blot was developed with film. […] (C) U2OS cells were cultured for the times indicated in the presence of 1.2 μM compound 1 to produce 80% of the maximum observed in FIG. 10A. Total cell extracts were assayed at the times indicated. […] All blots were stained with Ponceau S […].
Total cell lysates were prepared (in 4× dye). Proteins were fractionated at 200V in a NuPAGE 4-12% bis-tris polyacrylamide gel (NP0323, Novex) using NuPAGE MES running buffer (NP0002, Novex) and then stained with PageBlue (24260, Thermo Scientific) in order to quantify the relative amount of histones in each sample. […] Proteins were wet-transferred onto nitrocellulose membranes (162-0112, Bio-Rad) using NuPAGE transfer buffer (NP-0006-1, Novex) for 1 hour at 30V. Membranes were then stained with dilute Ponceau S solution, blocked in 5% milk for 30 minutes at room temperature, and incubated overnight at 4° C. in primary antibody. Membranes were washed with phosphate buffered saline with tween 20 (PBST) three times for 10 min. each, incubated with secondary antibodies in 5% milk for 1 hour, washed three times with PBST again, covered in ECL (SuperSignal West Pico chemiluminescent substrate, 34080, Thermo Scientific) and exposed to film (HyBlot ES, E3218, Denville Scientific).

[4] = system: human foreskin fibroblasts; assay: Proliferation/viability of human foreskin fibroblasts; format: cell-based; conditions: Fibroblast
Procedure: Concentration of each compound in the plate assay is indicated below the compound 1 plate.
as §1, with “Results were the same using either heat-inactivated or normal fetal calf serum.” left out

[5] = system: embryonic kidney cells; assay: Viability of embryonic kidney cells; format: cell-based; conditions: Homo sapiens
Procedure: (§2) FIG. 18 summarizes results from 13 human cell lines. All cells were seeded at the same cell density in a rich culture medium and assayed under identical conditions. Compound 1 efficacy is the ratio of cell viability with compound 1 to cell viability with chloroquine derivatives.
as §1, with “Results were the same using either heat-inactivated or normal fetal calf serum.” left out

[6] = system: melanoma A375 cells; assay: Cytoplasmic vacuolization of A375 cells; format: cell-based, human
[7] = system: breast adenocarcinoma cells; assay: Viability of breast adenocarcinoma cells; format: cell-based; conditions: Homo sapiens
Procedure: as §2

[8] = target: T1, PIKFYVE (Homo sapiens, UniProt Q9Y2I7); assay: DiscoverX KINOMEscan dissociation constant; format: binding
T1 construct: purchased DiscoverX (KINOMEscan service, San Diego, Calif.)
T1 sequence (Q9Y2I7 whole entry): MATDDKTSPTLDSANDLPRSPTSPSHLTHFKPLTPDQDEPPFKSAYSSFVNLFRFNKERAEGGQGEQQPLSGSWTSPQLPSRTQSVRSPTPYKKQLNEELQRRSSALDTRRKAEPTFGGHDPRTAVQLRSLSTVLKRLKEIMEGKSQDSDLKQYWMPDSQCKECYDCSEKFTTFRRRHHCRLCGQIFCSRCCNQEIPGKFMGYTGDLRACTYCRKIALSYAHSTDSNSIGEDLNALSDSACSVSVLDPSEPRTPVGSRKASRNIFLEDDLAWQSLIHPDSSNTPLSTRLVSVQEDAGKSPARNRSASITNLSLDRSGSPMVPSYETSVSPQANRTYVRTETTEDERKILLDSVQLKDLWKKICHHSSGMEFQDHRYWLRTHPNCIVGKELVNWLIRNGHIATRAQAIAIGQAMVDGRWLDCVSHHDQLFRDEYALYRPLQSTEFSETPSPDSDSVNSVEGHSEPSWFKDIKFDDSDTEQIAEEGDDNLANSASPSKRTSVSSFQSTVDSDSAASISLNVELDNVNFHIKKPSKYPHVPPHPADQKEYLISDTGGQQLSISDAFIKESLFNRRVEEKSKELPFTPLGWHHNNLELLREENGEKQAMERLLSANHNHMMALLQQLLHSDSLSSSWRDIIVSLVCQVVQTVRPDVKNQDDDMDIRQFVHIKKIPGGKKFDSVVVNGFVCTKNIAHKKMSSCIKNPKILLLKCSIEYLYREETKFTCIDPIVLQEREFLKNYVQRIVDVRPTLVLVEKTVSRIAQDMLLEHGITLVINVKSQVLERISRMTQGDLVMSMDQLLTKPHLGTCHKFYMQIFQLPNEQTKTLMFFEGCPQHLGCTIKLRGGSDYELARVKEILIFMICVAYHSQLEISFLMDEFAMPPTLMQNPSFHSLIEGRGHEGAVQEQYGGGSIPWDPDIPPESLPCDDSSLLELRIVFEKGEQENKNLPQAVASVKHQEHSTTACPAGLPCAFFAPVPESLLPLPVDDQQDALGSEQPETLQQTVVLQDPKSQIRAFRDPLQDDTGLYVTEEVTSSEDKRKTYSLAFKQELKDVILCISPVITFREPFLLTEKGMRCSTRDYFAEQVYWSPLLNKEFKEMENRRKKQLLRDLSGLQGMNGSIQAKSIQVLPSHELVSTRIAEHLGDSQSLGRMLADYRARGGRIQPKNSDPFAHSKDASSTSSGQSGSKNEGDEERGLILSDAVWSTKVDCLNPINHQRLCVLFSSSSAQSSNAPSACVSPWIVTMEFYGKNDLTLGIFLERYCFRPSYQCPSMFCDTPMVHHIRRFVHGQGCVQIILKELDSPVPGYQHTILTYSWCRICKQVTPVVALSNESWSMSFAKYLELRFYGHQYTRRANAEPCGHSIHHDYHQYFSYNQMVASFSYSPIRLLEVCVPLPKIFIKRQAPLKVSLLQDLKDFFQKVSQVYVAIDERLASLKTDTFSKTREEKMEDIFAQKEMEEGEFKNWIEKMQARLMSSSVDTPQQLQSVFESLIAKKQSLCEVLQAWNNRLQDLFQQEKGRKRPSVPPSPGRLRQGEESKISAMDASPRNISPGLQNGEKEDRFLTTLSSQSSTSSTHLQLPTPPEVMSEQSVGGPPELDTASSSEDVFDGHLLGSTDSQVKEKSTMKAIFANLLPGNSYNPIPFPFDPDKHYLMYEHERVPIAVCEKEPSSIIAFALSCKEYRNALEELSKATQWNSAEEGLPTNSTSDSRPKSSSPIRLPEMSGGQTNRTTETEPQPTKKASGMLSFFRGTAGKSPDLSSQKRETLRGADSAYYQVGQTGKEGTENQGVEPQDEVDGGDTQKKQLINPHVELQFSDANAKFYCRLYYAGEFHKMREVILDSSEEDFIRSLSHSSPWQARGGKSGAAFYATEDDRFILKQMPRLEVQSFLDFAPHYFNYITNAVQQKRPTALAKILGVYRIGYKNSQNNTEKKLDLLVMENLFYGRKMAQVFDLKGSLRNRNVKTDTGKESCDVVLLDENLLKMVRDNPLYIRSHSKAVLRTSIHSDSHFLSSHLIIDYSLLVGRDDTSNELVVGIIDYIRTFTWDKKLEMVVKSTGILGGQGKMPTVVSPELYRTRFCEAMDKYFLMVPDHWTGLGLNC
Procedure: Each kinase was tagged with a unique DNA sequence that allowed the amount of protein bound to the solid support to be quantified by PCR. The top three targets for compound 1 were PIKFYVE, PIP4K2C and MTOR. […] Dissociation constants (Kd) were determined from the amount of kinase captured on the solid support as a function of the test compound concentration (nM) on a log10 scale. Mean Kd values (±range) are given for each compound. The ratio of PIP4K2C to PIKFYVE indicates the relative specificity for these two kinases.
To address this hypothesis, a panel of 468 human kinases were screened for their ability to bind compound 1. […] The top two candidates were PIKFYVE (phosphoinositide kinase FYVE-type zinc finger containing) and PIP4K2C (phosphatidylinositol-5-phosphate 4-kinase). PIKFYVE is a kinase that is essential for mouse development (49) and that prevents endosome enlargement and cytoplasmic vacuolization (50, 51). PIP4K2C is a kinase that is not essential for mouse growth and viability, but it is essential for the immune system (52), mTORC1 signaling (53), and regulation of autophagy (54). The third candidate was MTOR, a kinase that regulates autophagy (55). Therefore, the binding constants (Kd) for all five members of the compound 1-family were determined for each of these three proteins from two independent titration curves, as shown for compound 1.

SMILES: Cc1cccc(/C=N/Nc2cc(N3CCOCC3)nc(OCCc3ccccn3)n2)c1 [Apilimod]
- Inhibition of proliferation of melanoma A375 cells [1]: effective

SMILES: CO/C1=C\C(C)=C\[C@@H](C)[C@@H](O)[C@@H](C)C/C(C)=C/C=C/[C@H](OC)[C@@H]([C@@H](C)[C@@H](O)[C@H](C)[C@@]2(O)C[C@@H](O)[C@H](C)[C@@H](C(C)C)O2)OC1=O [BafA1, Bafilomycin-A1, reference compound]
- Induction of vacuoles / enlarged lysosomes ([2]; U2OS cells): did not induce formation of enlarged lysosomes
- Effect on vacuole accumulation induced by the compounds of the invention ([2]; U2OS cells, BafA1 together with compound 1): prevented induction of vacuole accumulation
- Accumulation of LC3-II [3]: induced the accumulation of LC3-II

- EC50 [7]: > 10 µM
SMILES: CCN(CC)CCCC(C)Nc1ccnc2cc(Cl)ccc12 (stereo not shown) [CQ, chloroquine]
- EC50 ([4]; Homo sapiens): > 10 µM
- Inhibition of proliferation of melanoma A375 cells [1]: inhibited A375 cell proliferation
- EC50 [5]: > 10 µM
- Cytoplasmic vacuolization of A375 cells [6]: not observed

- EC50 ([7]; breast adenocarcinoma cells, read-out: EC50): > 10 µM
SMILES: CCN(CCO)CCCC(C)Nc1ccnc2cc(Cl)ccc12 (stereo not shown) [HCQ, hydroxychloroquine]
- EC50 ([4]; human foreskin fibroblasts, read-out: EC50): > 10 µM
- Inhibition of proliferation of melanoma A375 cells [1]: inhibited A375 cell proliferation
- EC50 ([5]; embryonic kidney cells, read-out: EC50): > 10 µM
- Cytoplasmic vacuolization of A375 cells [6]: not observed

SMILES: Ic1cccc(/C=N/Nc2nc(N3CCOCC3)nc(N(c3ccccc3)c3ccccc3)n2)c1 [Vacuolin]
- Inhibition of proliferation of melanoma A375 cells [1]: effective

SMILES: Nc1ccc(C(=O)Nc2cccc(-c3nc(N4CCOCC4)c4oc5ncccc5c4n3)c2)cn1 [YM201636]
- Inhibition of proliferation of melanoma A375 cells [1]: effective

SMILES: Fc1ccc(Nc2nc(N3CCOCC3)nc(N3CCOCC3)n2)cc1Cl [compound 2]
- Concentration to induce LC3-II accumulation, inhibit proliferation or viability relative to concentration to observe vacuolization [2]: two to three-fold

- Kd ([8]; mean of two independent titration curves): 0.016 µM
SMILES: CCc1ccc(Nc2nc(N3CCOCC3)nc(N3CCOCC3)n2)cc1 [compound 3]
- Concentration to induce LC3-II accumulation, inhibit proliferation or viability relative to concentration to observe vacuolization [2]: two to three-fold

- Standing within the family for PIKFYVE binding [8]: the most specific
SMILES: Cc1cccc(/C=N/Nc2cc(N3CCOCC3)nc(N3CCOCC3)n2)c1 [compound 4]
- Concentration to induce LC3-II accumulation, inhibit proliferation or viability relative to concentration to observe vacuolization [2]: about 10 fold

SMILES: C(=N\Nc1cc(N2CCOCC2)nc(N2CCOCC2)n1)/c1ccccc1 [compound 5]
- Concentration to induce LC3-II accumulation, inhibit proliferation or viability relative to concentration to observe vacuolization [2]: about 15 fold
